Results published in publication PMC6522510 (Nature Communications, 2019).
Read-outs that look alike come from different tables or passages of the source.

What was measured:
Set-up in all cases: species or system AML cell lines (8); Primary HTS, single concentration about 10 uM, Cell Titer Glo viability; log10 luminescence, per cent inhibition relative to cycloheximide control
Conditions in all cases: 72 h, relative to cycloheximide control, log10 luminescence, inhibitor
[1] = system: CMK
[2] = system: CHRF288-11
[3] = system: CMS
[4] = system: ML-2
[5] = system: MOLM-13
[6] = system: MV4-11
[7] = system: U937
[8] = system: M07e

COc1cc2c(cc1Nc1nc(N3CCc4ccccc43)c3cc[nH]c3n1)N(C(=O)CN(C)C)CC2 [SJ000573043-1, N7699-100-1]
CMK %inh [1]: 123.9%
CHRF288-11 %inh [2]: 128.5%
CMS %inh [3]: 96.79%
ML-2 %inh [4]: 54.96%
MOLM-13 %inh [5]: 9.876%
MV4-11 %inh [6]: 75.42%
U937 %inh [7]: 74.23%
M07e %inh [8]: 130.8%

COc1cc2c(cc1Nc1nc(Nc3ccsc3C(N)=O)c3cc[nH]c3n1)N(C(=O)CN(C)C)CCC2 [SJ000573044-1, N3343-60-3]
CMK %inh [1]: 100.5%
CHRF288-11 %inh [2]: 98.1%
CMS %inh [3]: 65.93%
ML-2 %inh [4]: 41.91%
MOLM-13 %inh [5]: 89.42%
MV4-11 %inh [6]: 66.76%
U937 %inh [7]: 74.84%
M07e %inh [8]: 106%

Nc1ncnc2occ(-c3ccc(NC(=O)Nc4cccc(C(F)(F)F)c4)cc3)c12 [SJ000573045-1, CL210513-033A3]
CMK %inh [1]: 22.69%
CHRF288-11 %inh [2]: 45.6%
CMS %inh [3]: 11.5%
ML-2 %inh [4]: 6.046%
MOLM-13 %inh [5]: 88.68%
MV4-11 %inh [6]: 73.96%
U937 %inh [7]: 26.65%
M07e %inh [8]: 17.9%

CCn1c(-c2nonc2N)nc2cncc(C(=O)NCCNC)c21 [SJ000573046-1, FIDE/U1002/66/2]
CMK %inh [1]: 39.87%
CHRF288-11 %inh [2]: 15.2%
CMS %inh [3]: 12.48%
ML-2 %inh [4]: 17.45%
MOLM-13 %inh [5]: 9.392%
MV4-11 %inh [6]: 47.15%
U937 %inh [7]: 25.48%
M07e %inh [8]: 12.62%

CCn1c(-c2nonc2N)nc2cncc(C(=O)N3CCNCC3)c21 [SJ000573047-1, TP100582-069A1]
CMK %inh [1]: -1.515%
CHRF288-11 %inh [2]: -1.797%
CMS %inh [3]: 1.245%
ML-2 %inh [4]: 1.727%
MOLM-13 %inh [5]: 0.2835%
MV4-11 %inh [6]: 2.106%
U937 %inh [7]: 1.348%
M07e %inh [8]: 4.058%

Nc1ncnc2occ(-c3ccc(NC(=O)Nc4cc(C(F)(F)F)ccc4F)cc3)c12 [SJ000573048-1, CL210513-029A3 | T299/89/1 | YF46626-103A2]
CMK %inh ([1]; CMK %inh, 10 µM): 31.71%
CHRF288-11 %inh ([2]; CHRF288-11 %inh, 10 µM): 26.14%
CMS %inh ([3]; CMS %inh, 10 µM): 8.741%
ML-2 %inh ([4]; ML-2 %inh, 10 µM): 1.043%
MOLM-13 %inh ([5]; MOLM-13 %inh, 10 µM): 82.99%
MV4-11 %inh ([6]; MV4-11 %inh, 10 µM): 68.76%
U937 %inh ([7]; U937 %inh, 10 µM): 17.4%
M07e %inh ([8]; M07e %inh, 10 µM): 14.83%

Nc1ncnc2occ(-c3ccc(NC(=O)Nc4cc(C(F)(F)F)ccc4F)cc3)c12 [SJ000573048-2, CL210513-029A3 | T299/89/1 | YF46626-103A2]
CMK %inh ([1]; CMK %inh, 10 µM): 82.88%
CHRF288-11 %inh ([2]; CHRF288-11 %inh, 10 µM): 5.114%
CMS %inh ([3]; CMS %inh, 10 µM): 10.62%
ML-2 %inh ([4]; ML-2 %inh, 10 µM): 4.549%
MOLM-13 %inh ([5]; MOLM-13 %inh, 10 µM): 99.82%
MV4-11 %inh ([6]; MV4-11 %inh, 10 µM): 78.92%
U937 %inh ([7]; U937 %inh, 10 µM): 50.36%
M07e %inh ([8]; M07e %inh, 10 µM): 28.03%

Cc1cc(O)cc(C)c1/C=C/c1cncc(-c2nn[nH]n2)c1 [SJ000573052-1, T252/80/1]
CMK %inh [1]: -5.146%
CHRF288-11 %inh [2]: -3.388%
CMS %inh [3]: -2.3%
ML-2 %inh [4]: -1.281%
MOLM-13 %inh [5]: -1.521%
MV4-11 %inh [6]: -3.299%
U937 %inh [7]: -3.239%
M07e %inh [8]: -1.115%

CN(C)C(=O)O[C@H]1CN[C@H](C#Cc2cc3ncnc(Nc4ccc(OCc5cccc(F)c5)c(Cl)c4)c3s2)C1 [SJ000573053-1, U20298/139/1 | U20747/39/1]
CMK %inh [1]: -4.087%
CHRF288-11 %inh [2]: 65.04%
CMS %inh [3]: 2.516%
ML-2 %inh [4]: 5.015%
MOLM-13 %inh [5]: -0.949%
MV4-11 %inh [6]: 4.747%
U937 %inh [7]: -0.4617%
M07e %inh [8]: 1.476%

CN(C)C(=O)O[C@@H]1CN[C@@H](C#Cc2cc3ncnc(Nc4ccc(OCc5cccc(F)c5)c(Cl)c4)c3s2)C1 [SJ000573053-2, U20298/139/1 | U20747/39/1]
CMK %inh [1]: -4.505%
CHRF288-11 %inh [2]: 39.41%
CMS %inh [3]: 4.277%
ML-2 %inh [4]: 1.706%
MOLM-13 %inh [5]: -3.067%
MV4-11 %inh [6]: -0.77%
U937 %inh [7]: 3.489%
M07e %inh [8]: -1.206%

COc1cccc(-n2cnc3c(N/N=C/c4ccncc4)ncnc32)c1 [SJ000573055-1, U17791/62/2]
CMK %inh [1]: 9.137%
CHRF288-11 %inh [2]: 0.9652%
CMS %inh [3]: 0.1507%
ML-2 %inh [4]: -0.9344%
MOLM-13 %inh [5]: 29.19%
MV4-11 %inh [6]: 22.16%
U937 %inh [7]: 6.107%
M07e %inh [8]: 2.779%
